The record followed here is patent publication US20220118037A1, “METHOD FOR IMPROVING SARCOPENIA BY USING PHELLINUS LINTEUS” (GRAPE KING BIO LTD, priority 2020, published 2022).

The test system of this assay is C2C12 cell line. As to the kind of experiment: Dexamethasone-induced sarcopenia model in differentiated C2C12 myotubes, diameters of the myotubes (H&E stain, Image-Pro Plus). It is filed as cell-based, mouse. The settings on record: 10 μM dexamethasone alone in 0.1% DMSO, 24 hours, C2C12 myotubes (negative control group). An excerpt: Mouse skeletal myocytes (i.e., C2C12 cell line) were utilized to establish a sarcopenia model. An artificially synthetic corticosteroid, dexamethasone was utilized to establish the sarcopenia model. Dexamethasone could inhibit the immune system and thus was utilized as an anti-inflammation drug or an allergy drug. […] Thus, dexamethasone was used to induce muscular dystrophy for simulating sarcopenia in this Example. First, a growth medium [Dulbecco's modified minimal essential medium (DMEM) including 10% fetal bovine serum] was utilized to culture the C2C12 cell line under 37° C., 5% CO2, in which the start density of the C2C12 cell line was 1×10^5 to 2×10^5 cells/mL. […] The diameters of the myotubes were measured by using a commercial software (Image-Pro Plus software), and the results of statistical analysis on the diameters of the myotubes were shown in Table 1, in which the statistic method used to analyze the percentage of each items was paired sample t-test, and the symbols “#” and “*” represented significant differences compared to the blank control group and negative control group (p<0.05, n=60), respectively.

Each structure is given as a SMILES string. Marks after values point to notes of the source that are not given here.

`C[C@@H]1C[C@H]2[C@@H]3CCC4=CC(=O)C=C[C@]4(C)[C@@]3(F)[C@@H](O)C[C@]2(C)[C@@]1(O)C(=O)CO` [dexamethasone]: the “Diameters of the myotubes” value was 19.98 ± 6.42# μm.
